Measured values taken from paper PMC8512844, “Olive Pomace Phenolic Compounds Stability and Safety Evaluation: From Raw Material to Future Ophthalmic Applications” (Molecules, 2021).

Legend:
[1] = system: human corneal epithelial (HCE) cells; experiment: In vitro genotoxicity, alkaline comet assay; type: cell-based; conditions: 24 h, 0.8 mg/mL CONV, 0.4 mg/mL OPT3, 300 μM OL, 100 μM HT, 5 μM + 50 μM OL+HT
Description: (§1) According to the ICH guideline S2 (R1), comet assay evaluates the cell DNA damage under a neutral or alkaline electrophoretic field. This leads to the separation between intact and damaged cellular DNA, creating the typical “comet tail” visible from a microscope. By measuring this tail, the extent of the DNA damage can be estimated. In this study, we applied alkaline electrophoresis, because it is more sensitive and can detect smaller amounts of DNA damages, including single and double-stranded DNA breaks, alkali labile DNA adducts, and most oxidative DNA damage.
(§2) Two different human ocular surface cell lines were selected for this assay: HCE and the IM-ConjEpi. The two selected OP extracts (CONV and OPT3) were tested for their in vitro genotoxicity on both cell lines, together with the two principal pure olive compounds OL and HT, alone or in combination (OL+HT). For each compound or extract, the maximum allowable concentration was selected to be tested, based on the results of their in vitro cytotoxicity on the same cell lines, as previously described.
(§3) HCE is an immortalized human corneal epithelial cell line, kindly offered by Dr. Arto Urti (University of Helsinki, Finland). It was cultured in DMEM/F-12 + GlutaMax supplemented with 10% fetal bovine serum, 10 ng/mL human epithelial growth factor, 5 μg/mL human insulin and antibiotics (100 U/mL penicillin + 0.1 mg/mL streptomycin). IM-ConjEpi was supplied by Innoprot (Derio, Spain. Ref. P10870-IM) and is an SV40- Large T Antigen immortalized human conjunctival epithelial cell line. It was cultured in DMEM/F-12 + GlutaMax supplemented with 10% fetal bovine serum, 10 ng/mL human epithelial growth factor, 1 μg/mL bovine insulin and antibiotics ([…]). HCE cell line was used from passage 25 to 35, while IM-ConjEpi from passage 10 to 20.
(§4) The cells were incubated at 37 °C and 5:95 = CO2:air atmosphere ratio, while their medium was changed every second day. Observations through a phase-contrast microscope were carried out daily.
(§5) For the in vitro tests, HT, OL, CONV, and OPT3 were dissolved in culture medium (DMEM/F-12 + GlutaMax, without any supplement) the day of the experiment. As previously described, CONV was produced by conventional solid–liquid extraction using freeze-dried material without any further pretreatment. OPT3 was generated by PLE extraction using freeze-dried material previously defatted with scCO2. The part of the extracts not dissolved to the culture medium was filtered through a 0.20 μm polyvinylidene fluoride sterile filter. The in vitro concentrations were selected according to a previous study, which described the maximum allowable non-toxic concentration of HT, OL, CONV, and OPT3 on the two ocular surface cell lines used. […]

[2] = system: immortalized human conjunctival epithelial (IM-ConjEpi) cells; experiment: In vitro genotoxicity, alkaline comet assay; type: cell-based; conditions: 24 h, 0.8 mg/mL CONV, 0.4 mg/mL OPT3, 300 μM OL, 100 μM HT, 5 μM + 50 μM OL+HT
Description: as §1, §2, §3, §4, §5

[3] = Long-term storage stability of aqueous solutions (CPMP/ICH/2736/99), HPLC-DAD relative quantification; type: physicochemical; conditions: for kobs (first-order degradation rate constant) / t1/2 (half-time period) / tlag (lag time): pure aqueous solution; for stability as pure solution: first 30 days
Experimental: According to the guidance CPMP/ICH/2736/99, aqueous solutions of HT, OL, OPT3 extract, and CONV extract were stored at four different conditions of temperature (ambient, refrigerated, […], and intermediate) and humidity. The conditions were: T = 5 ± 3 °C (with no humidity), T = 25 ± 2 °C (with 60 ± 5% RH), T = 30 ± 2 °C (with 65 ± 5% RH) and T = 40 ± 2 °C (with 75 ± 5% RH) up to a final duration of 6 months. For OPT3, HT was relatively quantified as % with respect to the concentration (C0) at the initial time (t0), while for CONV both % HT and % OL content were calculated similarly. […] The stability of up to 6 months is presented in the Figure S1 of the Supplementary Material. […] The lag time (tlag) represents the time that the concentration of the compound remains constant and, if present, is determined as the intercept of the initial degradation time with the initial concentration value. The half-life period (t1/2) is calculated from Equation (2). The degradation constant (kobs), the t1/2, and the time lag (tlag) together with the correlation coefficient (R^2) for each compound and storage condition are presented in Table 5. ln(C0/Ct) = kobs(t - tlag)(1) t1/2 = ln(2)/k + tlag(2) The quantitative determination of HT, TY, and OL was performed by an HPLC-DAD system: Waters e2695 separation module with an autosampler (20 μL injection volume) and a quaternary pump, coupled with Waters 2998 photodiode array detector set at 280 nm (Waters®, Dublin, Ireland). A C18 Mediterranean Sea column (250 × 4.6 mm, 5 μm) (Teknokroma Analítica S.A., Barcelona, Spain) at 35 °C connected with an OptiGuard 1 mm guard column (Sigma-Aldrich, St. Louis, MO, USA) were used. The gradient method, together with the eluents and the elution program used, were selected according to […] et al.. Calibration curves for OL (range: 12.5-1250 mg/L, linearity: […] R^2 = 0.9969) were prepared, using standard solutions of the compounds in DMSO, and analyzed in the same conditions as the samples. Compounds in the extracts were identified by comparing the retention time and the UV spectra of the samples with those of the standard solutions, while MS spectra were also used to confirm identification (see 3.7.1. for experimental conditions). […] Samples and calibration curves of standard solutions were analyzed within the same day. For the 6-months storage stability, relative quantification was performed with respect to the initial quantity t0 of each analyte. For data acquisition and processing, Empower® 3 software (Waters®, Dublin, Ireland) was used. Briefly, all compounds and extracts were dissolved in Milli-Q water, as high mineralization could increase the degradation of these substances. Additionally, according to the bibliography, lower concentrations could accelerate the decomposition of a compound. […] All solutions were filtered through a 0.20 μm polyvinylidene fluoride filter. […] To fix the desired humidity for each temperature, appropriate salts have been used according to the bibliography. […] The vials were placed in big glass containers, together with a sufficient quantity of each salt. Then, they were closed airtight and left in different rooms of controlled temperature and protected from light for 6 months. […] For CONV, HT and OL content were measured, while for OPT3 only HT content was calculated due to the lack of OL in this extract. All samples were analyzed in triplicate and the results are expressed as mean of the percentage with respect to the initial concentration t0 ± SD.

kobs (first-order degradation rate constant) ([3]; T = 5 °C/no humidity) [day⁻¹] | t1/2 (half-time period) ([3]; T = 5 °C/no humidity) [days] | tlag (lag time) ([3]; T = 5 °C/no humidity) [days] | kobs (first-order degradation rate constant) ([3]; T = 25 °C/60% RH) [day⁻¹] | t1/2 (half-time period) ([3]; T = 25 °C/60% RH) [days] | tlag (lag time) ([3]; T = 25 °C/60% RH) [days] | kobs (first-order degradation rate constant) ([3]; T = 30 °C/65% RH) [day⁻¹] | t1/2 (half-time period) ([3]; T = 30 °C/65% RH) [days] | tlag (lag time) ([3]; T = 30 °C/65% RH) [days] | kobs (first-order degradation rate constant) ([3]; T = 40 °C/75% RH) [day⁻¹] | t1/2 (half-time period) ([3]; T = 40 °C/75% RH) [days] | tlag (lag time) ([3]; T = 40 °C/75% RH) [days] | SMILES | Genotoxic effect (%TDNA) versus control group [1] | Genotoxic effect (%TDNA) versus control group [2] | also measured
0.0069 | 101.5 | 1.0 | 0.0337 | 21.6 | 1.0 | 0.1068 | 6.5 | 0 | 0.1234 | 5.6 | 0 | OCCc1ccc(O)c(O)c1 [HT, hydroxytyrosol] | No statistically significant differences | No statistically significant differences | stability as standard solution ([3]; 5 °C, first month): stable at a high percentage for the entire month; time from which the standard solution is completely degraded ([3]; 25 °C): fourth month; time from which the standard solution is completely degraded ([3]; 30 °C and 40 °C): third month
0.0099 | 81.3 | 11.3 | 0.0065 | 116.5 | 9.9 | 0.4022 | 1.7 | 0 | 0.3658 | 1.9 | 0 | C/C=C1/[C@H](O[C@@H]2O[C@H](CO)[C@@H](O)[C@H](O)[C@H]2O)OC=C(C(=O)OC)[C@H]1CC(=O)OCCc1ccc(O)c(O)c1 [OL, oleuropein] | No statistically significant differences | No statistically significant differences | stability as pure solution ([3]; 5 °C or 25 °C): remains at high levels; stability as standard solution ([3]; 25 °C or below): stable for up to 1 month; half-life at 113 mg/L ([3]; aqueous solution of the pure compound, pure solution, temperature above 30 °C, read-out: t1/2 (time to reduce the concentration to half of the initial value) (converted)): ~72 h; time the compound remains stable ([3]; pure solution, temperature values below 25 °C): approximately 11 days; final content compared to t0 ([3]; standard solution, 5 °C and 25 °C, 6 months): ca. 35%; stability as pure solution ([3]; temperature values above 30 °C): highly unstable
